Where two headings read alike, the source gives them in different places.
Experiments:
Type in all cases: cell-based
MRC-5 cell line = experiment: Cell viability assay (cytotoxicity) for MRC-5 cell line; conditions: for IC50: Homo sapiens, MRC5, 120 h
Experimental: 4. Cell Viability Assay for MRC-5 Cell Line
(1) Culture of MRC-5 Cell Line
Passage of cultured cells was maintained within P15.
(2) Treatment of Compounds of the Present Invention
Then, it was cultured in 37° C.
(3) Cytotoxicity Experiment
CO2 incubator for 4 hours.
Cell Viability Assay for MRC-5 cell line

PLK1 = molecular target: T1, PLK1 (Homo sapiens, UniProt P53350); experiment: Luciferase assay for PLK1 in HeLa LgBit (Plk1-HiBit KI) cell line; conditions: 300 nM compound, luminescence after 9 hours, read-out: Activity: ratio of the luminescense value of compound treatment group to DMSO treatment group
T1 construct: endogenous in cells; host or cells: HeLa LgBit (Plk1-HiBit KI): HeLa cells stably expressing LgBit, with HiBit knocked into the endogenous Plk1 locus by CRISPR/Cas9
Experimental: 2. Luciferase Assay for PLK1
(1) Preparation and Culture of HeLa LgBit (Plk1-HiBit KI) Cell Line
A HeLa cell line in which the LgBit vector was transfected and expressed stably was prepared. Then, after constructing gRNA and donor to express the HiBit amino acid sequence behind the C-terminal of the Plk1 gene, which was inherent in the cell, it was inserted into the cell together with a vector capable of expressing CRISPR/Cas9. Only the cells in which the insertion was completed and knock-in had progressed were selected, sub-cultured and used.
(2) Treatment of Compounds of the Present Invention and Method of Luciferase Assay
In the case of HeLa LgBit (Plk1-HiBit KI), the compounds were treated after being released after thymidine block, and the process was as follows. Thymidine (Sigma-Aldrich Cat. No. T9250-5G) was completely dissolved in DW and used in the experiment. For thymidine block, the products were treated with 2 mM of thymidine and then incubated for 24 hours. For release and chemical treatment, the medium was suctioned and washed with 1×PBS. TrypLE™ was added and incubated in 37° C. CO2 incubator for 5 min. Cells neutralized by adding complete media were counted through a counter. For each well of a 96-well culture plate (SPL), 3.3×10^4 cells and a total medium volume of 150 μL were seeded and incubated in a CO2 incubator.
Each cell line was incubated in a CO2 incubator for 18 hours, and Endurazine was added to each well to make up 4% of the total volume. After adding the compound of the present invention in a 96-well white plate (SPL) to a concentration of 300 nM, the wavelength of the plate reader (BMG Labtech, CLARIOstar Plus) was set to […], and then the luminescence was tracked in real time.
In Table 2, Activity represents the ratio of the luminescense value of each Exemplary Compound treatment group to DMSO treatment group (+++: <0.3, ++<0.6, +<0.7).

NCI-H526 cell line = experiment: Cell viability assay for H526 cell line; conditions: Homo sapiens, NCI-H526, 120 h; H526 cells, 5 days, EZ-Cytox, 3000 nM to 0.46 nM
Experimental: 3. Cell Viability Assay for H526 Cell Line
(1) Culture of NCI-H526 Cell Line
(2) Treatment of Compounds of the Present Invention and Method of Cell Viability Assay
After treating the compound to each well to make the total volume of 200 μL, it was cultured in a CO2 incubator (Thermo Fisher Science, Cat. No. 4111) for 5 days.
The absorbance of the completely cultured sample was measured by setting the wavelength of a plate reader (BMG Labtech, CLARIOstar Plus) to […], and was measured after shaking for 3 minutes in a plate reader before measurement.
In Table 3, Activity represents IC50 value of each Exemplary Compound treatment group to H526 cell line (A: <30 nM, B: <50 nM, C: <100 nM, D: <200 nM, E: <400 nM).

[1] = read-out: Activity: IC50 value to MRC-5 cell line (Comparative Compounds)
[2] = MRC-5 normal cell line, 5 days, EZ-Cytox, 10000 nM to 1.52 nM, read-out: Activity: IC50 value to MRC-5 cell line (Exemplary Compounds)

T1 sequence (P53350 whole entry): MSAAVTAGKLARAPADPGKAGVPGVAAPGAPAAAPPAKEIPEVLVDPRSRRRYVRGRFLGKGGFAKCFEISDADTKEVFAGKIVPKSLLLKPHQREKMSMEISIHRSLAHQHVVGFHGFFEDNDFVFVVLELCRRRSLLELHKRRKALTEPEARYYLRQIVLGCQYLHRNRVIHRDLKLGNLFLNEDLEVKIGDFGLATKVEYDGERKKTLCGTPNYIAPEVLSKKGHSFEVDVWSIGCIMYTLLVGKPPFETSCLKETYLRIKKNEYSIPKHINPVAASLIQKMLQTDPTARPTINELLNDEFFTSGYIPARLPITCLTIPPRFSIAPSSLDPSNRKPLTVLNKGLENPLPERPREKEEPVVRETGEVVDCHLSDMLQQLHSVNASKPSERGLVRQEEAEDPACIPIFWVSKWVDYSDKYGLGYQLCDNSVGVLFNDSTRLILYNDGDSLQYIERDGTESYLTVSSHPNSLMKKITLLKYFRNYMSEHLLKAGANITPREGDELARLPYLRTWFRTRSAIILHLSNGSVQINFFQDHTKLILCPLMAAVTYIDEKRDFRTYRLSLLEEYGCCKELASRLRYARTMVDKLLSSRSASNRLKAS

Row | Structure (SMILES) | remaining activity at 0.3 µM (PLK1) [%] | IC50 (NCI-H526 cell line) [nM] | also measured
1 | CC[C@@H]1C(=O)N(C)c2cnc(Nc3ccc(C(=O)NCCOCCOCCNc4cccc5c4C(=O)N(C4CCC(=O)NC4=O)C5=O)cc3OC)nc2N1C1CCCC1 (stereo partly shown) [Comparative Compound 1, reference compound] |  |  | IC50 (MRC-5 cell line; MRC-5 normal cell line, 5 days, EZ-Cytox, 10000 nM to 1.52 nM, read-out: Activity: IC50 value to MRC-5 cell line (Comparative Compounds)): 107 nM; cytotoxicity in normal cell line (MRC-5 cell line; MRC-5 normal cell line, statement in words): high level of cytotoxicity
2 | CC[C@@H]1C(=O)N(C)c2cnc(Nc3ccc(C(=O)NC4CCN(C)CC4)cc3OC)nc2N1C1CCCC1 [Comparative Compound 2, BI2536, reference compound] |  |  | IC50 (MRC-5 cell line; [1]): 3090 nM
3 | CC[C@@H]1C(=O)N(C)c2cnc(Nc3ccc(C(=O)N[C@H]4CC[C@H](N5CCN(CC6CC6)CC5)CC4)cc3OC)nc2N1C(C)C [Comparative Compound 3, Volasertib, reference compound] |  |  | IC50 (MRC-5 cell line; [1]): 2940 nM
4 | COc1cc(C(=O)NC2CCN(C)CC2)c(F)cc1Nc1ncc2c(n1)N(C1CCCC1)CC(F)(F)C(=O)N2C [Comparative Compound 4, TAK960, reference compound] |  |  | IC50 (MRC-5 cell line; [1]): 9150 nM
5 | COc1cc(C(=O)NC2CCN(CCOCCOCCOCCOCCNc3ccc(C4CCC(=O)NC4=O)cc3)CC2)c(F)cc1Nc1ncc2c(n1)N(C1CCCC1)CC(F)(F)C(=O)N2C (stereo not shown) [Compound 1, 4-((9-cyclopentyl-7,7-difluoro-5-methyl-6-oxo-6,7,8,9-tetrahydro-5H-pyrimido[4,5-b][1,4]diazepin-2-yl)amino)-N-(1-(14-((4-(2,6-dioxopiperidin-3-yl)phenyl)amino)-3,6,9,12-tetraoxatetradecyl)piperidin-4-yl)-2-fluoro-5-methoxybenzamide] | < 60 | < 50 | IC50 (MRC-5 cell line; [2]): 25600 nM
6 | COc1cc(C(=O)NC2CCN(C(=O)CCCOc3cccc(C4CCC(=O)NC4=O)c3)CC2)c(F)cc1Nc1ncc2c(n1)N(C1CCCC1)CC(F)(F)C(=O)N2C (stereo not shown) [Compound 2, 4-((9-cyclopentyl-7,7-difluoro-5-methyl-6-oxo-6,7,8,9-tetrahydro-5H-pyrimido[4,5-b][1,4]diazepin-2-yl)amino)-N-(1-(4-(3-(2,6-dioxopiperidin-3-yl)phenoxy)butanoyl)piperidin-4-yl)-2-fluoro-5-methoxybenzamide] | < 60 | < 50 | IC50 (MRC-5 cell line; [2]): > 10000 nM
7 | COc1cc(OCC2CC3(CCN(CC4CCN(c5ccc(C6CCC(=O)NC6=O)cc5F)CC4)CC3)C2)ccc1Nc1ncc2c(n1)N(C1CCCC1)CC(F)(F)C(=O)N2C (stereo not shown) [Compound 17, 3-(4-(4-((2-((4-((9-cyclopentyl-7,7-difluoro-5-methyl-6-oxo-6,7,8,9-tetrahydro-5H-pyrimido[4,5-b][1,4]diazepin-2-yl)amino)-3-methoxyphenoxy)methyl)-7-azaspiro[3.5]nonan-7-yl)methyl)piperidin-1-yl)-3-fluorophenyl)piperidine-2,6-dione] | < 30 | < 200 | 
8 | COc1cc(C(=O)NN2CCC(N3CC4(CCN(c5ccc(C6CCC(=O)NC6=O)cc5F)CC4)C3)CC2)ccc1Nc1ncc2c(n1)N(C1CCCC1)CC(F)(F)C(=O)N2C (stereo not shown) [Compound 18, 4-((9-cyclopentyl-7,7-difluoro-5-methyl-6-oxo-6,7,8,9-tetrahydro-5H-pyrimido[4,5-b][1,4]diazepin-2-yl)amino)-N-(4-(7-(4-(2,6-dioxopiperidin-3-yl)-2-fluorophenyl)-2,7-diazaspiro[3.5]nonan-2-yl)piperidin-1-yl)-3-methoxybenzamide] | < 60 | < 30 | 
9 | COc1cc(C(=O)NC2CC23CCN(CC2CCN(c4ccc(C5CCC(=O)NC5=O)cc4F)CC2)CC3)ccc1Nc1ncc2c(n1)N(C1CCCC1)CC(F)(F)C(=O)N2C (stereo not shown) [Compound 23, 4-((9-cyclopentyl-7,7-difluoro-5-methyl-6-oxo-6,7,8,9-tetrahydro-5H-pyrimido[4,5-b][1,4]diazepin-2-yl)amino)-N-(6-((1-(4-(2,6-dioxopiperidin-3-yl)-2-fluorophenyl)piperidin-4-yl)methyl)-6-azaspiro[2.5]octan-1-yl)-3-methoxybenzamide] | < 30 | < 30 | 
10 | COc1cc(C(=O)NC2CC3(CCN(CC4CCN(c5cccc(N6CCC(=O)NC6=O)c5)CC4)CC3)C2)ccc1Nc1ncc2c(n1)N(C1CCCC1)CC(F)(F)C(=O)N2C [Compound 34, 4-((9-cyclopentyl-7,7-difluoro-5-methyl-6-oxo-6,7,8,9-tetrahydro-5H-pyrimido[4,5-b][1,4]diazepin-2-yl)amino)-N-(7-((1-(3-(2,4-dioxotetrahydropyrimidin-1(2H)-yl)phenyl)piperidin-4-yl)methyl)-7-azaspiro[3.5]nonan-2-yl)-3-methoxybenzamide] | < 60 | < 30 | 
11 | COc1cc(C(=O)NC2CC3(CCN(CC4CCN(c5cccc(C6CCC(=O)NC6=O)c5)CC4)CC3)C2)ccc1Nc1ncc2c(n1)N(C1CCCC1)CC(F)(F)C(=O)N2C (stereo not shown) [Compound 41, 4-((9-cyclopentyl-7,7-difluoro-5-methyl-6-oxo-6,7,8,9-tetrahydro-5H-pyrimido[4,5-b][1,4]diazepin-2-yl)amino)-N-(7-((1-(3-(2,6-dioxopiperidin-3-yl)phenyl)piperidin-4-yl)methyl)-7-azaspiro[3.5]nonan-2-yl)-3-methoxybenzamide] | < 60 | < 30 | 
12 | COc1cc(C(=O)NC2CCN(C3CN(c4ccc(C5CCC(=O)NC5=O)cc4F)C3)CC2)ccc1Nc1ncc2c(n1)N(C1CCCC1)CC(F)(F)C(=O)N2C (stereo not shown) [Compound 42, 4-((9-cyclopentyl-7,7-difluoro-5-methyl-6-oxo-6,7,8,9-tetrahydro-5H-pyrimido[4,5-b][1,4]diazepin-2-yl)amino)-N-(1-(1-(4-(2,6-dioxopiperidin-3-yl)-2-fluorophenyl)azetidin-3-yl)piperidin-4-yl)-3-methoxybenzamide] | < 30 | < 30 | 
13 | COc1cc(C(=O)NN2CCC(C3CN(c4ccc(C5CCC(=O)NC5=O)cc4F)C3)CC2)ccc1Nc1ncc2c(n1)N(C1CCCC1)CC(F)(F)C(=O)N2C (stereo not shown) [Compound 43, 4-((9-cyclopentyl-7,7-difluoro-5-methyl-6-oxo-6,7,8,9-tetrahydro-5H-pyrimido[4,5-b][1,4]diazepin-2-yl)amino)-N-(4-(1-(4-(2,6-dioxopiperidin-3-yl)-2-fluorophenyl)azetidin-3-yl)piperidin-1-yl)-3-methoxybenzamide] | < 60 | < 50 | 
14 | COc1cc(C(=O)NN2CC3(CCN(CC4CCN(c5ccc(C6CCC(=O)NC6=O)cc5F)CC4)CC3)C2)ccc1Nc1ncc2c(n1)N(C1CCCC1)CC(F)(F)C(=O)N2C (stereo not shown) [Compound 44] | < 60 | < 30 | 
15 | COc1cc(C(=O)NC2CC3(CCN(C[C@@H]4CCN(c5ccc(C6CCC(=O)NC6=O)cc5F)C[C@@H]4F)CC3)C2)ccc1Nc1ncc2c(n1)N(C1CCCC1)CC(F)(F)C(=O)N2C (stereo partly drawn) [Compound 46, −((9-cyclopentyl-7,7-difluoro-5-methyl-6-oxo-6,7,8,9-tetrahydro-5H-pyrimido[4,5-b][1,4]diazepin-2-yl)amino)-N-(7-(((3R,4S)-1-(4-(2,6-dioxopiperidin-3-yl)-2-fluorophenyl)-3-fluoropiperidin-4-yl)methyl)-7-azaspiro[3.5]nonan-2-yl)-3-methoxybenzamide] | < 30 |  | 
